Experimental data: patent US8501683B2, “Cycloundecadepsipeptide compounds and use of said compounds as a medicament” (priority 2008, dated 2013)
Square brackets hold non-standard residues; d marks the D form. Peptide text beside a SMILES is read from it. MeBmt = C/C=C/C[C@@H](C)[C@@H](O)[C@H](NC)C(=O)O; NMeI = CC[C@H](C)[C@H](NC)C(=O)O; NEtVal = CCN[C@H](C(=O)O)C(C)C; NMeL = CN[C@@H](CC(C)C)C(=O)O; NMeV = CN[C@H](C(=O)O)C(C)C; dHiv = CC(C)[C@@H](O)C(=O)O; dNMeA = CN[C@H](C)C(=O)O; Abu = CC[C@H](N)C(=O)O; Sar = CNCC(=O)O

Columns and labels:
[1] = test system: hepatitis C virus genotype 1b Con1 replicon; experiment: HCV replicon assay, replicon RNA by RT-qPCR in Huh 9-13 cells; type: cell-based; conditions: 50% inhibition of HCV replicon replication, 3 dose-response curves
Description: For the evaluation of antiviral effects, assay medium was aspirated and the plates with dry monolayer were stored at −80° C. awaiting extraction. Following thawing of the plates at room temperature, the cell monolayer was lysed with 100 μl of cell-to-cDNA lysis buffer (Invitrogen). Lysis of the cells was allowed to proceed for 10 min at room temperature after which all liquid was transferred to a PCR plate (Axygen). The PCR plate was incubated for 15 min at 75° C. […] The lysate was diluted 1:2 with RNase/DNase-free water, after which 5 μl was transferred to the real-time PCR plate (Applied Biosystems).
Replicon RNA content was quantified using a real-time quantitative one-step RT-PCR method (RT-qPCR): Low Rox One-Step RT-qPCR master mix, Abgene). […] The fluorogenic probe was 5′-[sequence]-3′. The analysis of the samples were performed using a SDS7500F (Applied Biosystems, standard thermocycling profile: 30 min at 48° C., 10 min at 95° C., 40 cycles of 15 sec at 95° C. and 1 min at 60° C.) after which replicon RNA quantities were converted to percentage of untreated controls.

[2] = test system: Concanavalin-A-induced T-cell proliferation; experiment: Concanavalin-A-induced T-cell proliferation assay (immunosuppression); type: cell-based; conditions: inhibition of Concanavalin-A-induced T-cell proliferation
Description: To determine whether the cycloundecadepsipepide compounds of the present invention have a non-immunosuppression activity, experiments were carried out that compared the dose-dependent inhibition of Concanavalin-A-induced T-cell proliferation (see Table 2).
The method of the assays were performed as described by Dayton et al. (1992. Mol. Pharmacol. 41. 671-676) and Mishell et al. (1980. Cell proliferation in selected methods in cellular immunology, V, XXIX, W.H. Freeman Co., San Francisco, Calif. 153-160).

[3] = Cytostatic/cytotoxic effect, MTT (MTS) assay in Huh 9-13 cells; type: cell-based; conditions: metabolic activity reduced to 50% of untreated cells
Text: Assays used Huh 9-13 containing the hepatitis C virus genotype 1b Con1 replicon (Lohmann et al. 2001. J. Virol. 75:1437-1449; and Lohmann et al. 1999. Science. 285:110-113). Cells were sub-cultured in cell growth medium DMEM supplemented with 10% FCS, 1% non-essential amino acids, 1% penicillin/streptomycin and 2% Geneticin (Invitrogen) at a ratio of 1:4-1:5 and grown for 3-4 days in 75 cm^2 tissue culture flasks (Techno Plastic Products), were harvested and seeded in assay medium (DMEM, 10% FCS, 1% non-essential amino acids, 1% penicillin/streptomycin) at a density of 5 000 cells/well (100 μl/well) in 96-well tissue culture microtiter plates (Falcon, Beckton Dickinson) for evaluation of cytostatic/cytotoxic and antiviral effect. The microtiter plates were incubated overnight (37° C., 5% CO2, 95-99% relative humidity), yielding a non-confluent cell monolayer.
Cell density and cytostatic effects were estimated in parallel cultures in regular 96-well plates (Beckton-Dickinson) using the MTT assay (CellTiter 96 AQueous Non-Radioactive Cell Proliferation Assay, Promega). In this assay, 3-(4,5-dimethyl-thiazol-2-yl)-5-(3-carboxymethoxy-phenyl)-2-(4-sulfophenyl)-2H-tetrazolium (MTS) is bioreduced to a formazan that is quantified at 498 nm in a plate reader. Formazan production is directly correlated with number of life cells. Absorbance was measured at a wavelength of 498 nm (Safire^2, Tecan) and optical densities (OD values) were converted to percentage of untreated controls.
The compounds were dissolved in DMSO at a concentration of 4 mmole/L. Stock solutions were immediately used to set up the experiments. The compounds were tested at 24 different concentrations ranging from 0.0001 μmole/L to 100 μmole/L. The highest concentration of DMSO in the assay was determined to be 2.5% (at 100 μM final concentration of the compound). During the assay setup, the DMSO percentage decreased concomitantly with decrease in concentration of the compound.
The EC50 (value derived from the dose-response curve) represents the concentration at which 50% inhibition of viral replication is observed. The CC50 (value derived from the dose-response curve) represents the concentration at which the metabolic activity of the cells is reduced to 50% of the metabolic activity of untreated cells.
Results from these experiments permitted calculation of EC50±SD (standard deviation or Std. Dev.), which is the effective concentration required to inhibit HCV replicon replication by 50%, and of CC50±SD (whenever possible), which is the concentration required that inhibits the proliferation of exponentially growing cells by 50%. EC50 and CC50±SD values were calculated respectively as the median of all the EC50, or CC50 values derived from the 3 individual dose-response curves. The selectivity index (SI), indicative of the therapeutic window of the compound was calculated as the ratio between CC50 and EC50.

[4] = target: organic anion transporting polypeptide 1B1 (OATP1B1) (Homo sapiens, UniProt Q9Y6L6)
Description: (§1) To determine whether the cycloundecadepsipeptide compounds of the present invention interact with hepatic transporters, experiments were carried out that compared the concentration-dependent inhibition towards the multidrug resistance associated protein 2 (MRP2), the organic anion transporting polypeptide 1B1 (OATP1B1), the bile salt export pump (BSEP) and the sodium-taurocholate cotransporting polypeptide (NTCP). These transporters are involved in the hepatobiliary circulation of endogenous compounds such as bile salts or bilirubin (for a review, see C. Pauli-Magnus et al, J. Hepatology, 2005, 43:342-357). Some of them also contribute to the elimination of xenobiotics.
OATP1B1 and NTCP assays were performed with Chinese hamster ovary (CHO) cells expressing these human uptake transporters. The amount of the transported probe substrate (estrone-3-sulfate and taurocholate for OATP1B1 and NTCP, respectively) was determined by liquid scintillation or fluorescent photometry after cell lysis.
(§2) The IC50 (defined as the concentration required for inhibiting the transport of the probe substrate by 50%, half maximal inhibitory concentration) of the compounds was derived from the concentration-response curve and compared to the IC50 of Debio 025 (IC50 ratio expressed as “fold Debio 025” in the tables).

[5] = target: bile salt export pump (BSEP) (Homo sapiens, UniProt O95342); conditions: for BSEP fold Debio 025: IC50 ratio compared to Debio 025
Description: as §1
(§3) MRP2 and BSEP were expressed by SOLVO Biotechnology in Spodoptera frugiperda (Sf9) ovarian cells, by infecting the insect cells with a recombinant baculovirus. The inhibition of the transport of the radioactive probe substrates (estradiol-17-beta-glucuronide and taurocholate for MRP2 and BSEP, respectively) into inside-out membrane vesicles, containing the transporter, was measured by scintillation counting.
as §2

[6] = target: multidrug resistance associated protein 2 (MRP2) (Homo sapiens, UniProt Q92887); conditions: for MRP2 fold Debio 025: IC50 ratio compared to Debio 025
Description: as §1, §3, §2

[7] = target: T1, sodium-taurocholate cotransporting polypeptide (NTCP) (Homo sapiens, UniProt Q14973); experiment: NTCP inhibition, taurocholate uptake in CHO cells; type: in vitro ADME; conditions: for NTCP fold Debio 025: IC50 ratio compared to Debio 025
T1 sequence (Q14973 1-349): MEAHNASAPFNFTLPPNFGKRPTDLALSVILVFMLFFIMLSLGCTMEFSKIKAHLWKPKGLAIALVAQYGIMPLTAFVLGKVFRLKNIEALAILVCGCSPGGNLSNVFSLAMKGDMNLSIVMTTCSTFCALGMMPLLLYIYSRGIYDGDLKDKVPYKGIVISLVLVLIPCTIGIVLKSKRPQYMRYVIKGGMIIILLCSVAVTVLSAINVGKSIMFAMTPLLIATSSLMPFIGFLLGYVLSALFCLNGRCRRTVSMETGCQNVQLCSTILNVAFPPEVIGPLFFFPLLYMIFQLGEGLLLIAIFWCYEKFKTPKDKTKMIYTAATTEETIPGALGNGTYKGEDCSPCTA

[8] = human, Huh 9-13 cells containing the HCV genotype 1b Con1 replicon

organic anion transporting polypeptide 1B1 (OATP1B1), sequence (Q9Y6L6 whole entry): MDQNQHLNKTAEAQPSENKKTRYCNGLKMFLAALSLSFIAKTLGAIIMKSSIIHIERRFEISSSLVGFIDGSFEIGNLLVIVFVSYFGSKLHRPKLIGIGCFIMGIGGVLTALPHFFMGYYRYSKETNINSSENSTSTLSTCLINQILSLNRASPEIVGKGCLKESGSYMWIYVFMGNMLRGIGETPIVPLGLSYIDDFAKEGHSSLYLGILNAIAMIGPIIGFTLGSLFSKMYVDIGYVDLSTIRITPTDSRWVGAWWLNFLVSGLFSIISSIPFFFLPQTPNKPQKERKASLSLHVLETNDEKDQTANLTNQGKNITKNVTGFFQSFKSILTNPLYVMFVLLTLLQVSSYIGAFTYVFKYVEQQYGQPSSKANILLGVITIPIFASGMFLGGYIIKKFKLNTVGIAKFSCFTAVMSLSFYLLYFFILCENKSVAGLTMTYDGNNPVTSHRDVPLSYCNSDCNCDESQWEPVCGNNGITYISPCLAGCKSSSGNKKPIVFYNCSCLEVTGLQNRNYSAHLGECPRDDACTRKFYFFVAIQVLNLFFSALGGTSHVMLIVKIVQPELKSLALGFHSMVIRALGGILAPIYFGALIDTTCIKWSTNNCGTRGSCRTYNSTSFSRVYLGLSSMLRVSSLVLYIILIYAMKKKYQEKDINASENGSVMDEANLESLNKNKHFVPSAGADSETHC
multidrug resistance associated protein 2 (MRP2), sequence (Q92887 whole entry): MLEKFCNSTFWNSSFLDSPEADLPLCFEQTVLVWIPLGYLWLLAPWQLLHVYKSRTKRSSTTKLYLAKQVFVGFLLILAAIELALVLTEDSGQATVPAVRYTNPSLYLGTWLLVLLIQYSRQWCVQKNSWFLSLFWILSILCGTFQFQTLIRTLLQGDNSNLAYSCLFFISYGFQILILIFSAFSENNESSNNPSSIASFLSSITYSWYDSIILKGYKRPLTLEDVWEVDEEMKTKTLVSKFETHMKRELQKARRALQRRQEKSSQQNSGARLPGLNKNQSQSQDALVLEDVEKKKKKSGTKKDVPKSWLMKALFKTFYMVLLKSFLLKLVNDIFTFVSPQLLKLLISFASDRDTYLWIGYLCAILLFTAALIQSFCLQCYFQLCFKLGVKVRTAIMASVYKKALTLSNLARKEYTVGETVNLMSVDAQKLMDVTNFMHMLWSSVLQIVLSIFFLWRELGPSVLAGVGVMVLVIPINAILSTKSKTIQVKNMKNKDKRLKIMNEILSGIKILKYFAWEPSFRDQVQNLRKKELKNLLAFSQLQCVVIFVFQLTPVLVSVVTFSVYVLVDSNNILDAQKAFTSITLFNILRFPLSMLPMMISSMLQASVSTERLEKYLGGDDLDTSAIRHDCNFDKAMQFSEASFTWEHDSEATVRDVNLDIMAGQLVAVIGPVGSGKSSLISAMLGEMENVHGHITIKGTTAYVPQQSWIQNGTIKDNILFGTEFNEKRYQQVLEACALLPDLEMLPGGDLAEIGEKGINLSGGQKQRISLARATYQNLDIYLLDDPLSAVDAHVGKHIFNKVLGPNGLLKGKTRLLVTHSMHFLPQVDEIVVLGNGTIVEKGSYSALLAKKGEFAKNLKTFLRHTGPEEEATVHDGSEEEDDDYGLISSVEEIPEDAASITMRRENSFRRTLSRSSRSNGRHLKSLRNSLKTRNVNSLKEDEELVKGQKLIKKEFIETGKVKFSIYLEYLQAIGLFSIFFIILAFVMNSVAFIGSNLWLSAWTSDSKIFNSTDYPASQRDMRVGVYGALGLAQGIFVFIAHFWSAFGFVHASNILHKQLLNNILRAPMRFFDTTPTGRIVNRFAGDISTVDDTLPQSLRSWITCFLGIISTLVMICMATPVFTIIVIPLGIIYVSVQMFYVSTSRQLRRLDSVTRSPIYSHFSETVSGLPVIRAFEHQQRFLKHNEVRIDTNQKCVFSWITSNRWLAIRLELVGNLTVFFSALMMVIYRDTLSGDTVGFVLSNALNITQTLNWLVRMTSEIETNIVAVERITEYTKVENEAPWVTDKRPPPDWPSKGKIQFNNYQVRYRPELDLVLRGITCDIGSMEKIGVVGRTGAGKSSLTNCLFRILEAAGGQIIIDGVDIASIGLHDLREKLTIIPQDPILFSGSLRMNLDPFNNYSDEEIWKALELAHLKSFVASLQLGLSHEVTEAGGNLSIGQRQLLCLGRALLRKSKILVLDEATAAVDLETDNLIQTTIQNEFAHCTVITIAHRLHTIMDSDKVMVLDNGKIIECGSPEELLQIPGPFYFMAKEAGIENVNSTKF
bile salt export pump (BSEP), sequence (O95342 whole entry): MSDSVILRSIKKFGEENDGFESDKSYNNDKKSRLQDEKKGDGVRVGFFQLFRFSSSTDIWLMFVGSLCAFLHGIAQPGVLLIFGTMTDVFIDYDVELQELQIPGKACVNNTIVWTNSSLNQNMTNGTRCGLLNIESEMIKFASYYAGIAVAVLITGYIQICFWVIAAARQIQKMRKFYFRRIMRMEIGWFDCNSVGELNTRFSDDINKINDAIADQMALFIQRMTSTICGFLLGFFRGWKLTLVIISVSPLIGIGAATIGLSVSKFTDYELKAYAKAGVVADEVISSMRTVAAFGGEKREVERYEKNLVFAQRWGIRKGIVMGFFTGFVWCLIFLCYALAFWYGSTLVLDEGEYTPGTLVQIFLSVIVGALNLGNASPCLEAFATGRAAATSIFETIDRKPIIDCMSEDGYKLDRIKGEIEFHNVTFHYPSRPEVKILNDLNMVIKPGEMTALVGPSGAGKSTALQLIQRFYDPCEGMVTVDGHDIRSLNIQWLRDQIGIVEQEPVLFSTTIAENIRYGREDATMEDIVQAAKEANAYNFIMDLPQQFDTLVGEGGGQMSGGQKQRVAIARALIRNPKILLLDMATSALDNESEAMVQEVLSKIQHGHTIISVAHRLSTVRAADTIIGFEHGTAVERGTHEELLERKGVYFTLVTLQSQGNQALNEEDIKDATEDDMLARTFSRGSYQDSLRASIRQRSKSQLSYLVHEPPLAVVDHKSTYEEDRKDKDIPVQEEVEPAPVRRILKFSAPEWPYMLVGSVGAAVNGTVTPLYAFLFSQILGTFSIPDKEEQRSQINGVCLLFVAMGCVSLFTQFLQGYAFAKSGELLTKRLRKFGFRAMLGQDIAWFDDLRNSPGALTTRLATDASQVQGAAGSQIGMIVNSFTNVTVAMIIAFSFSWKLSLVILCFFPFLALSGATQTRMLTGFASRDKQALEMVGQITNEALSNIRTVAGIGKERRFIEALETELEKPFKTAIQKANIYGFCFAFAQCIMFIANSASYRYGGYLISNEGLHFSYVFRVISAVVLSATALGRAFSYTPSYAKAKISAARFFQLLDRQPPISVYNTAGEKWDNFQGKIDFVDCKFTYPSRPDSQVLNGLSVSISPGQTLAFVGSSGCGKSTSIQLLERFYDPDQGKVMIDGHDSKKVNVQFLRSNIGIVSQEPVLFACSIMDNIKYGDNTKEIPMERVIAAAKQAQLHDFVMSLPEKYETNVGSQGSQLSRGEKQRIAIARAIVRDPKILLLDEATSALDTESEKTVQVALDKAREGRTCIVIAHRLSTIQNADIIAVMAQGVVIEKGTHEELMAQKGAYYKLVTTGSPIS

Compound `C/C=C/C[C@@H](C)[C@@H](O)[C@H]1C(=O)N[C@@H](CC)C(=O)N(C)[C@H](C)C(=O)N(C)[C@@H](C(C)C)C(=O)N[C@@H](CC(C)C)C(=O)N(C)[C@@H](CC(C)C)C(=O)NCC(=O)O[C@H](C(C)C)C(=O)N(C)[C@@H](CC(C)C)C(=O)N[C@@H](CC(C)C)C(=O)N(C)[C@@H](C(C)C)C(=O)N1C` [(Ia), cyclo-(MeBmt-Abu-D-MeAla-MeVal-Leu-MeLeu-Gly-D-Hiv-MeLeu-Leu-MeVal)] (cyclo([Abu][dNMeA][NMeV]L[NMeL]G[dHiv][NMeL]L[NMeV][MeBmt])) has an EC50 [1] of 34 nM, an IC50 [2] of 2000 nM and a CC50 [3, 8] of 60100 nM. The IC50 [4] was 18000 nM, the “OATP1B fold Debio 025” value [4] was 0.02 and the IC50 [5] was 400 nM. The “BSEP fold Debio 025” value [5] was 0.60, the “MRP2 IC50” value [6] was “n.i” and the “NTCP IC50” value ([7]; probe taurocholate, CHO cells) was “n.i”.

`C/C=C/C[C@@H](C)[C@@H](O)[C@H]1C(=O)N[C@@H](CC)C(=O)N(C)[C@H](C)C(=O)N(CC)[C@@H](C(C)C)C(=O)N[C@@H](CC(C)C)C(=O)N(C)[C@@H](CC(C)C)C(=O)N[C@@H](C)C(=O)O[C@H](C(C)C)C(=O)N(C)[C@@H](CC(C)C)C(=O)N[C@@H](CC(C)C)C(=O)N(C)[C@@H](C(C)C)C(=O)N1C` [(Ib), cyclo-(MeBmt-Abu-D-MeAla-EtVal-Leu-MeLeu-Ala-D-Hiv-MeLeu-Leu-MeVal)] (cyclo(A[dHiv][NMeL]L[NMeV][MeBmt][Abu][dNMeA][NEtVal]L[NMeL])) gave an EC50 [1] of 37 nM, an IC50 [2] of 9440 nM and a CC50 [3, 8] of 52300 nM. For the same compound, the IC50 [4] was 6200 nM, the “OATP1B fold Debio 025” value [4] was 0.07 and the IC50 [5] was 150 nM. The “BSEP fold Debio 025” value [5] was 1.6, the “MRP2 IC50” value [6] was “n.i” and the “NTCP fold Debio 025” value [7] was 0.05. It also gave an IC50 ([7]; probe taurocholate, CHO cells) of 65000 nM.

`C/C=C/C[C@@H](C)[C@@H](O)[C@H]1C(=O)N[C@@H](C(C)C)C(=O)N(C)[C@H](C)C(=O)N(C)[C@@H](C(C)C)C(=O)N[C@@H]([C@@H](C)CC)C(=O)N(C)[C@@H](CC(C)C)C(=O)NCC(=O)O[C@H](C(C)C)C(=O)N(C)[C@@H](CC(C)C)C(=O)N[C@@H](CC(C)C)C(=O)N(C)[C@@H](C(C)C)C(=O)N1C` [(Ic), cyclo-(MeBmt-Val-D-MeAla-MeVal-Ile-MeLeu-Gly-D-Hiv-MeLeu-Leu-MeVal)] (cyclo(G[dHiv][NMeL]L[NMeV][MeBmt]V[dNMeA][NMeV]I[NMeL])) gave an EC50 [1] of 22 nM, an IC50 [2] of 984 nM and a CC50 [3, 8] of 86900 nM. The IC50 [4] was 2300 nM, the “OATP1B fold Debio 025” value [4] was 0.18 and the IC50 [5] was 160 nM. The “BSEP fold Debio 025” value [5] was 1.5, the IC50 [6] was 2200 nM and the “MRP2 fold Debio 025” value [6] was 6.6. For the same compound, the “NTCP fold Debio 025” value [7] was 0.11 and the IC50 ([7]; probe taurocholate, CHO cells) was 30000 nM.

In the case of `C/C=C/C[C@@H](C)[C@@H](O)[C@H]1C(=O)N[C@@H](CC)C(=O)N(C)[C@H](C)C(=O)N(C)[C@@H](C(C)C)C(=O)N[C@@H]([C@@H](C)CC)C(=O)N(C)[C@@H](CC(C)C)C(=O)NCC(=O)O[C@H](C(C)C)C(=O)N(C)[C@@H](CC(C)C)C(=O)N[C@@H](CC(C)C)C(=O)N(C)[C@@H](C(C)C)C(=O)N1C` [(Ig), cyclo-(MeBmt-Abu-D-MeAla-MeVal-Ile-MeLeu-Gly-D-Hiv-MeLeu-Leu-MeVal)] (cyclo([Abu][dNMeA][NMeV]I[NMeL]G[dHiv][NMeL]L[NMeV][MeBmt])), the CC50 [3] is reported as 67000 nM.

For `C/C=C/C[C@@H](C)[C@@H](O)[C@H]1C(=O)N[C@@H](CC)C(=O)N(C)[C@H](C)C(=O)N(C)[C@@H]([C@@H](C)CC)C(=O)N[C@@H](CC(C)C)C(=O)N(C)[C@@H](CC(C)C)C(=O)NCC(=O)O[C@H](C(C)C)C(=O)N(C)[C@@H](CC(C)C)C(=O)N[C@@H](CC(C)C)C(=O)N(C)[C@@H](C(C)C)C(=O)N1C` [(Ii), cyclo-(MeBmt-Abu-D-MeAla-MeIle-Leu-MeLeu-Gly-D-Hiv-MeLeu-Leu-MeVal)] (cyclo([Abu][dNMeA][NMeI]L[NMeL]G[dHiv][NMeL]L[NMeV][MeBmt])), the CC50 [3] was 25400 nM.

Work on `C/C=C/C[C@@H](C)[C@@H](O)[C@H]1C(=O)N[C@@H](C(C)C)C(=O)N(C)[C@H](C)C(=O)N(C)[C@@H](C(C)C)C(=O)N[C@@H](C(C)C)C(=O)N(C)CC(=O)NCC(=O)O[C@H](C(C)C)C(=O)N(C)[C@@H](CC(C)C)C(=O)N[C@@H](CC(C)C)C(=O)N(C)[C@@H](C(C)C)C(=O)N1C` [(Ik), cyclo-(MeBmt-Val-D-MeAla-MeVal-Val-Sar-Gly-D-Hiv-MeLeu-Leu-MeVal)] (cyclo(G[dHiv][NMeL]L[NMeV][MeBmt]V[dNMeA][NMeV]V[Sar])) yielded a CC50 [3] of 9800 nM.

Work on `C/C=C/C[C@@H](C)[C@@H](O)[C@H]1C(=O)N[C@@H](CC)C(=O)N(C)[C@H](C)C(=O)N(CC)[C@@H](C(C)C)C(=O)N[C@@H](C(C)C)C(=O)N(C)[C@@H](CC(C)C)C(=O)N[C@@H](C)C(=O)N[C@H](C)C(=O)N(C)[C@@H](CC(C)C)C(=O)N(C)[C@@H](CC(C)C)C(=O)N(C)[C@@H](C(C)C)C(=O)N1C` [Debio 025, [D-MeAla]^3-[EtVal]^4-CsA, reference compound] yielded an EC50 [1] of 34 nM, a CC50 [3, 8] of 2500 nM and an IC50 [4] of 420 nM. For the same compound, the “OATP1B fold Debio 025” value [4] was 1, the IC50 [5] was 240 nM and the “BSEP fold Debio 025” value [5] was 1. The IC50 [6] was 15000 nM, the “MRP2 fold Debio 025” value [6] was 1 and the “NTCP fold Debio 025” value [7] was 1. For the same compound, the IC50 ([7]; probe taurocholate, CHO cells) was 3200 nM.

“Cyclosporin A [Cyclosporin A (CsA), reference compound]” gave an IC50 [2] of 6 nM.
